Measurements: ChEMBL document CHEMBL2176953, “Synthesis and evaluation of α-thymidine analogues as novel antimalarials” (J Med Chem, 2012)

What was measured:
Plasmodium falciparum = assay: Antimalarial activity against erythrocytic stages of Plasmodium falciparum 3D7 infected in human O positive RBC after 48 hrs by SYBR-green assay; type: functional, organism-based; conditions: 3D7, 48 h
Thymidylate kinase = target: T1, Thymidylate kinase (Plasmodium falciparum (isolate 3D7), UniProt Q8I4S1); assay: Inhibition of recombinant Plasmodium falciparum TMPK using TMP as substrate by pyruvate kinase and lactate dehydrogenase enzyme coupled assay
T1 sequence (Q8I4S1 whole entry): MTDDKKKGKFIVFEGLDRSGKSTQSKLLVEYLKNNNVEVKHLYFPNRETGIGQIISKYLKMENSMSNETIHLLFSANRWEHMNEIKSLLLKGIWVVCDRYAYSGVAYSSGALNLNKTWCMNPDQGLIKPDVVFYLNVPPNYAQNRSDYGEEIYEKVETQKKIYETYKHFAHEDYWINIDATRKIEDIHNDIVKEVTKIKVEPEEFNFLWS

MRC5 = assay: Cytotoxicity against human MRC5 cells; type: cell-based

Row | SMILES | EC50 (Plasmodium falciparum) [µM] | Ki (Thymidylate kinase) [µM] | CC50 (MRC5) [µM]
1 | Cc1cn([C@H]2C[C@H](O)[C@@H](CNS(=O)(=O)c3ccc4ccccc4c3)O2)c(=O)[nH]c1=O | > 100 | > 1000 | 
2 | Cc1cn([C@H]2C[C@H](O)[C@@H](CNC(=O)Nc3cccnc3)O2)c(=O)[nH]c1=O | > 100 | 222 | 
3 | COc1ccc(NC(=O)NC[C@H]2O[C@H](n3cc(C)c(=O)[nH]c3=O)C[C@@H]2O)cc1 | 2.5 |  | > 50
4 | COc1ccc(COc2ccc(NC(=O)NC[C@H]3O[C@@H](n4cc(C)c(=O)[nH]c4=O)C[C@@H]3O)cc2)cc1 | 3.8 |  | > 50
5 | Cc1cn([C@H]2C[C@H](O)[C@@H](CNC(=O)Nc3ccc(C(C)(C)C)cc3)O2)c(=O)[nH]c1=O | 64 | 47 | 
6 | Cc1cn([C@H]2C[C@H](O)[C@@H](CNCc3ccc([N+](=O)[O-])cc3)O2)c(=O)[nH]c1=O | > 100 | 742 | 
7 | Cc1cn([C@H]2C[C@H](O)[C@@H](CNC(=O)Nc3ccc(Cl)cc3)O2)c(=O)[nH]c1=O | > 200 | 14 | 
8 | Cc1cn([C@@H]2C[C@H](O)[C@@H](CNC(=S)Nc3ccc(N4CCOCC4)cc3)O2)c(=O)[nH]c1=O | 35 |  | 
9 | Cc1cn([C@@H]2C[C@H](O)[C@@H](CNC(=O)Nc3ccc(OCc4ccc(Cl)cc4)cc3)O2)c(=O)[nH]c1=O | 0.88 |  | > 50
10 | Cc1cn([C@@H]2C[C@H](O)[C@@H](CNC(=O)Nc3ccc(N4CCN(C)CC4)cc3)O2)c(=O)[nH]c1=O | 29 |  | 
11 | Cc1cn([C@H]2C[C@H](O)[C@@H](CNS(=O)(=O)c3ccc([N+](=O)[O-])cc3)O2)c(=O)[nH]c1=O | > 100 | > 1000 | 
12 | Cc1cn([C@@H]2C[C@H](O)[C@@H](CNC(=O)c3ccc4ccccc4c3)O2)c(=O)[nH]c1=O | > 100 | 541 | 
13 | Cc1cn([C@@H]2C[C@H](O)[C@@H](CNC(=O)c3ccc([N+](=O)[O-])cc3)O2)c(=O)[nH]c1=O | > 100 | 541 | 
14 | Cc1cn([C@@H]2C[C@H](O)[C@@H](CNC(=O)Nc3ccc(OCc4ccc(C(C)(C)C)cc4)cc3)O2)c(=O)[nH]c1=O | 1.8 |  | > 50
15 | Cc1cn([C@@H]2C[C@H](O)[C@@H](CNS(=O)(=O)c3ccc4ccccc4c3)O2)c(=O)[nH]c1=O | > 100 | > 1000 | 
16 | Cc1cn([C@H]2C[C@H](O)[C@@H](CNC(=O)Nc3ccccc3)O2)c(=O)[nH]c1=O | > 100 | 60 | 
17 | Cc1cn([C@@H]2C[C@H](O)[C@@H](CNC(=S)Nc3ccc(OCc4ccccc4)cc3)O2)c(=O)[nH]c1=O | 9.5 |  | > 50
18 | Cc1cn([C@@H]2C[C@H](O)[C@@H](CNC(=O)Nc3ccc(Cc4ccccc4)cc3)O2)c(=O)[nH]c1=O | 1.5 |  | > 50
19 | Cc1cn([C@H]2C[C@H](O)[C@@H](CNC(=S)Nc3ccc(Cl)c(C(F)(F)F)c3)O2)c(=O)[nH]c1=O | 42 | 25 | 

Row | SMILES | EC50 (Plasmodium falciparum) [µM] | Ki (Thymidylate kinase) [µM] | CC50 (MRC5) [µM]
20 | COc1ccc(NC(=O)NC[C@H]2O[C@@H](n3cc(C)c(=O)[nH]c3=O)C[C@@H]2O)cc1 | 69 | 50 | 
21 | Cc1cn([C@H]2C[C@H](O)[C@@H](CNC(=O)NCc3ccccc3)O2)c(=O)[nH]c1=O | > 200 | 64 | 
22 | COc1ccc(COc2ccc(NC(=O)NC[C@H]3O[C@H](n4cc(C)c(=O)[nH]c4=O)C[C@@H]3O)cc2)cc1 | 0.21 |  | 
23 | Cc1cn([C@H]2C[C@H](O)[C@@H](CNC(=O)Nc3cccc(COc4ccccc4)c3)O2)c(=O)[nH]c1=O | 148 |  | 
24 | Cc1cn([C@H]2C[C@H](O)[C@@H](CNC(=O)Nc3ccc(N4CCN(C)CC4)cc3)O2)c(=O)[nH]c1=O | 26 |  | 
25 | Cc1cn([C@H]2C[C@H](O)[C@@H](CNC(=O)Nc3ccc(OCc4ccccc4Cl)cc3)O2)c(=O)[nH]c1=O | 0.41 |  | > 50
26 | Cc1cn([C@H]2C[C@H](O)[C@@H](CNC(=O)Nc3ccc(OC4CCOCC4)cc3)O2)c(=O)[nH]c1=O | 33 |  | 
27 | Cc1cn([C@H]2C[C@H](O)[C@@H](CNC(=O)Nc3ccccc3COc3ccccc3)O2)c(=O)[nH]c1=O | 48 |  | 
28 | Cc1cn([C@@H]2C[C@H](O)[C@@H](CNC(=O)Nc3cccnc3)O2)c(=O)[nH]c1=O | > 100 | > 1000 | 
29 | Cc1cn([C@H]2C[C@H](O)[C@@H](CNC(=O)Nc3cccc(Cl)c3)O2)c(=O)[nH]c1=O | > 100 | 28 | 
30 | Cc1cn([C@@H]2C[C@H](O)[C@@H](CNC(=S)Nc3ccc(Br)cc3)O2)c(=O)[nH]c1=O | 20 | 65 | 
31 | Cc1cn([C@H]2C[C@H](O)[C@@H](CNC(=O)c3ccc([N+](=O)[O-])cc3)O2)c(=O)[nH]c1=O | > 100 | 302 | 
32 | Cc1cn([C@H]2C[C@H](O)[C@@H](CNC(=O)Nc3ccccc3-c3ccccc3)O2)c(=O)[nH]c1=O | 253 |  | 
33 | Cc1cn([C@@H]2C[C@H](O)[C@@H](CNC(=O)Nc3ccc(OCc4cccc(Cl)c4)cc3)O2)c(=O)[nH]c1=O | 0.24 |  | > 50
34 | Cc1cn([C@@H]2C[C@H](O)[C@@H](CNC(=O)Nc3ccccc3COc3ccccc3)O2)c(=O)[nH]c1=O | 7.2 |  | > 50
35 | Cc1cn([C@@H]2C[C@H](O)[C@@H](CNCc3ccc([N+](=O)[O-])cc3)O2)c(=O)[nH]c1=O | > 100 | > 1000 | 
36 | Cc1cn([C@H]2C[C@H](O)[C@@H](CNC(=S)Nc3ccc(Cl)cc3)O2)c(=O)[nH]c1=O | > 200 | 37 | 
37 | COc1cccc(NC(=O)NC[C@H]2O[C@H](n3cc(C)c(=O)[nH]c3=O)C[C@@H]2O)c1 | 56 | 159 | 
38 | Cc1cn([C@H]2C[C@H](O)[C@@H](CNC(=S)Nc3ccc(Br)cc3)O2)c(=O)[nH]c1=O | 172 | 32 | 

Row | SMILES | EC50 (Plasmodium falciparum) [µM] | Ki (Thymidylate kinase) [µM] | CC50 (MRC5) [µM]
39 | Cc1cn([C@@H]2C[C@H](O)[C@@H](CNC(=O)Nc3ccccc3Cl)O2)c(=O)[nH]c1=O | 36 | 205 | 
40 | Cc1cn([C@H]2C[C@H](O)[C@@H](CNC(=O)c3ccc4ccccc4c3)O2)c(=O)[nH]c1=O | > 100 | > 1000 | 
41 | CCOC(=O)CCNC(=O)NC[C@H]1O[C@H](n2cc(C)c(=O)[nH]c2=O)C[C@@H]1O | > 100 | > 1000 | 
42 | Cc1ccc2nc(-c3ccc(NC(=O)NC[C@H]4O[C@@H](n5cc(C)c(=O)[nH]c5=O)C[C@@H]4O)cc3)sc2c1 | > 200 |  | 
43 | Cc1cn([C@H]2C[C@H](O)[C@@H](CNC(=O)Nc3ccc(Br)cc3)O2)c(=O)[nH]c1=O | 30 | 15 | 
44 | CCOC(=O)CCNC(=O)NC[C@H]1O[C@@H](n2cc(C)c(=O)[nH]c2=O)C[C@@H]1O | > 100 | 201 | 
45 | COc1ccccc1NC(=O)NC[C@H]1O[C@H](n2cc(C)c(=O)[nH]c2=O)C[C@@H]1O | 44 | 138 | 
46 | Cc1cn([C@@H]2C[C@H](O)[C@@H](CNS(=O)(=O)c3ccc([N+](=O)[O-])cc3)O2)c(=O)[nH]c1=O | > 100 | > 1000 | 
47 | Cc1cn([C@H]2C[C@H](O)[C@@H](CNC(=O)Nc3ccc([N+](=O)[O-])cc3)O2)c(=O)[nH]c1=O | 69 | 11 | 
48 | Cc1cn([C@H]2C[C@H](O)[C@@H](CNC(=O)Nc3ccc(Cl)c(C(F)(F)F)c3)O2)c(=O)[nH]c1=O | 114 | 27 | 
49 | COc1ccccc1NC(=O)NC[C@H]1O[C@@H](n2cc(C)c(=O)[nH]c2=O)C[C@@H]1O | > 100 | 107 | 
50 | Cc1cn([C@@H]2C[C@H](O)[C@@H](CNC(=O)Nc3ccc([N+](=O)[O-])cc3)O2)c(=O)[nH]c1=O | 31 | 11 | 
51 | Cc1cn([C@@H]2C[C@H](O)[C@@H](CNC(=O)Nc3ccccc3-c3ccccc3)O2)c(=O)[nH]c1=O | 96 |  | 
52 | Cc1cn([C@H]2C[C@H](O)[C@@H](CNC(=O)Nc3ccccc3Cl)O2)c(=O)[nH]c1=O | > 100 | 52 | 
53 | COc1cccc(NC(=O)NC[C@H]2O[C@@H](n3cc(C)c(=O)[nH]c3=O)C[C@@H]2O)c1 | > 100 | 69 | 
54 | Cc1cn([C@@H]2C[C@H](O)[C@@H](CNC(=O)Nc3ccccc3)O2)c(=O)[nH]c1=O | 23 | 166 | 
55 | Cc1cn([C@@H]2C[C@H](O)[C@@H](CNC(=O)NCc3ccccc3)O2)c(=O)[nH]c1=O | 64 | 198 | 
56 | Cc1cn([C@H]2C[C@H](O)[C@@H](CNC(=O)Nc3cccc4ccccc34)O2)c(=O)[nH]c1=O | > 100 |  | 
